Data: PubChem BioAssay (NCI)
Several values for one entry are separate records, joined by “and”; a condition that tells them apart may be missing. Identical values can stand only once.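 Five concentrations, 48 hours, 96-well plates. GI50 is the concentration that inhibits growth by half. Definition used: TGI = concentration required for complete inhibition of growth.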

What was measured:
Assay in all cases: NCI tumour cell line growth inhibition, 48 h
HCT-116 colon = system: HCT-116 colon
OVCAR-4 ovarian = system: OVCAR-4 ovarian
RXF 393 renal = system: RXF 393 renal
NCI-H226 lung = system: NCI-H226 lung
SK-OV-3 ovarian = system: SK-OV-3 ovarian
T-47D breast = system: T-47D breast
SK-MEL-2 melanoma = system: SK-MEL-2 melanoma
M14 melanoma = system: M14 melanoma
MCF7 breast = system: MCF7 breast
U251 CNS = system: U251 CNS
NCI-H23 lung = system: NCI-H23 lung
SNB-75 CNS = system: SNB-75 CNS
PC-3 prostate = system: PC-3 prostate
BT-549 breast = system: BT-549 breast
KM12 colon = system: KM12 colon
ACHN renal = system: ACHN renal
EKVX NSCLC = system: EKVX NSCLC
UO-31 renal = system: UO-31 renal
OVCAR-5 ovarian = system: OVCAR-5 ovarian
HCC-2998 colon = system: HCC-2998 colon
HS 578T breast = system: HS 578T breast
SW-620 colon = system: SW-620 colon
K-562 leukemia = system: K-562 leukemia
NCI-H522 lung = system: NCI-H522 lung
HCT-15 colon = system: HCT-15 colon
A498 renal = system: A498 renal
SNB-19 CNS = system: SNB-19 CNS
UACC-62 melanoma = system: UACC-62 melanoma
LOX IMVI melanoma = system: LOX IMVI melanoma
HT29 colon = system: HT29 colon
NCI-H460 lung = system: NCI-H460 lung
SF-295 CNS = system: SF-295 CNS
OVCAR-3 ovarian = system: OVCAR-3 ovarian
RPMI-8226 leukemia = system: RPMI-8226 leukemia
DU-145 prostate = system: DU-145 prostate
HOP-92 NSCLC = system: HOP-92 NSCLC
OVCAR-8 ovarian = system: OVCAR-8 ovarian
SR leukemia = system: SR leukemia
SN12C renal = system: SN12C renal
HL-60(TB) leukemia = system: HL-60(TB) leukemia
TK-10 renal = system: TK-10 renal
786-0 renal = system: 786-0 renal
COLO 205 colon = system: COLO 205 colon
A549 NSCLC = system: A549 NSCLC
SK-MEL-28 melanoma = system: SK-MEL-28 melanoma
SK-MEL-5 melanoma = system: SK-MEL-5 melanoma
UACC-257 melanoma = system: UACC-257 melanoma
SF-268 CNS = system: SF-268 CNS
CAKI-1 renal = system: CAKI-1 renal
SF-539 CNS = system: SF-539 CNS
MOLT-4 leukemia = system: MOLT-4 leukemia
MDA-MB-435 = system: MDA-MB-435
MDA-MB-231 breast = system: MDA-MB-231 breast
NCI/ADR-RES ovarian = system: NCI/ADR-RES ovarian
IGROV1 ovarian = system: IGROV1 ovarian
HOP-62 NSCLC = system: HOP-62 NSCLC

For `COc1cccc(/C=C/C(=O)N2CC(CCl)c3c2cc(N)c2ccccc32)c1` (configuration not stated), the TGI (HCT-116 colon) was 1.27 µM, the TGI (OVCAR-4 ovarian) was 0.141 µM and the TGI (RXF 393 renal) was 0.00342 µM. For the same molecule, the TGI (NCI-H226 lung) was 0.0425 µM, the TGI (SK-OV-3 ovarian) was 1.16 µM and the TGI (T-47D breast) was 3.59 µM. The TGI (SK-MEL-2 melanoma) was 0.0224 µM, the TGI (M14 melanoma) was 0.105 µM and the TGI (MCF7 breast) was 0.00568 µM. The TGI (U251 CNS) was 0.37 µM, the TGI (NCI-H23 lung) was 0.0124 µM and the TGI (SNB-75 CNS) was 0.0153 µM. The TGI (PC-3 prostate) was 0.0562 µM and 0.132 µM, the GI50 (BT-549 breast) was 0.0142 µM and the TGI (KM12 colon) was 0.0352 µM and 0.161 µM. The TGI (ACHN renal) was 0.0024 µM, the TGI (EKVX NSCLC) was 0.145 µM and 0.0415 µM and the TGI (UO-31 renal) was over 100 µM. The TGI (OVCAR-5 ovarian) was 1.5 µM, the TGI (HCC-2998 colon) was 0.0166 µM and the TGI (HS 578T breast) was 0.0409 µM. The TGI (SW-620 colon) was over 100 µM, the TGI (K-562 leukemia) was over 100 µM and the TGI (NCI-H522 lung) was 0.00889 µM. The TGI (HCT-15 colon) was 0.224 µM, the TGI (A498 renal) was 0.0342 µM and the TGI (SNB-19 CNS) was over 100 µM. The TGI (UACC-62 melanoma) was 0.0224 µM, the TGI (LOX IMVI melanoma) was 0.0065 µM and the TGI (HT29 colon) was 20 µM. For the same molecule, the TGI (NCI-H460 lung) was 0.00325 µM, the TGI (SF-295 CNS) was 0.00953 µM and the TGI (OVCAR-3 ovarian) was 1.72 µM. For the same molecule, the TGI (RPMI-8226 leukemia) was over 100 µM.
For `CC(=O)O[C@H]1CC[C@]2(C)C3C(=O)C[C@]4(C)[C@@H](C(C)CCC(=O)O)CC[C@@]4(C)[C@@H]3CC[C@H]2C1(C)C` (some centres not stated), the GI50 (HCT-116 colon) was 9.37 µM, the TGI (HCT-116 colon) was 20.5 µM and the GI50 (OVCAR-4 ovarian) was 40.4 µM. The TGI (OVCAR-4 ovarian) was over 50 µM, the GI50 (RXF 393 renal) was 15.5 µM and the TGI (RXF 393 renal) was over 50 µM. For the same molecule, the GI50 (NCI-H226 lung) was over 50 µM, the TGI (NCI-H226 lung) was over 50 µM and the GI50 (SK-OV-3 ovarian) was 21.4 µM. It also gave a TGI (SK-OV-3 ovarian) of over 50 µM, a GI50 (DU-145 prostate) of 19.7 µM and a TGI (DU-145 prostate) of over 50 µM. For the same molecule, the GI50 (HOP-92 NSCLC) was 36.8 µM, the TGI (HOP-92 NSCLC) was over 50 µM and the GI50 (SK-MEL-2 melanoma) was 45.8 µM. For the same molecule, the TGI (SK-MEL-2 melanoma) was over 50 µM, the GI50 (OVCAR-8 ovarian) was 15.7 µM and the TGI (OVCAR-8 ovarian) was over 50 µM. For the same molecule, the GI50 (M14 melanoma) was 20.5 µM, the TGI (M14 melanoma) was over 50 µM and the GI50 (SR leukemia) was 16.6 µM. For the same molecule, the TGI (SR leukemia) was over 50 µM, the GI50 (SN12C renal) was over 50 µM and the TGI (SN12C renal) was over 50 µM. It also gave a GI50 (HL-60(TB) leukemia) of 8.65 µM, a TGI (HL-60(TB) leukemia) of over 50 µM and a GI50 (MCF7 breast) of 20.7 µM. For the same molecule, the TGI (MCF7 breast) was over 50 µM, the GI50 (U251 CNS) was 7 µM and the TGI (U251 CNS) was 20 µM. For the same molecule, the GI50 (NCI-H23 lung) was 19.1 µM, the TGI (NCI-H23 lung) was over 50 µM and the GI50 (SNB-75 CNS) was 42.7 µM. The TGI (SNB-75 CNS) was over 50 µM, the GI50 (PC-3 prostate) was 18.3 µM and the TGI (PC-3 prostate) was over 50 µM. For the same molecule, the GI50 (BT-549 breast) was 17 µM, the TGI (BT-549 breast) was 39.4 µM and the GI50 (TK-10 renal) was 21.8 µM. It also gave a TGI (TK-10 renal) of over 50 µM, a GI50 (KM12 colon) of 13.9 µM and a TGI (KM12 colon) of 38.4 µM. It also gave a GI50 (ACHN renal) of 10.7 µM, a TGI (ACHN renal) of 35.4 µM and a GI50 (EKVX NSCLC) of 10.2 µM. The TGI (EKVX NSCLC) was 36.8 µM, the GI50 (786-0 renal) was 20.7 µM and the TGI (786-0 renal) was over 50 µM. For the same molecule, the GI50 (COLO 205 colon) was 20.9 µM, the TGI (COLO 205 colon) was over 50 µM and the GI50 (UO-31 renal) was 40.7 µM. For the same molecule, the TGI (UO-31 renal) was over 50 µM, the GI50 (OVCAR-5 ovarian) was over 50 µM and the TGI (OVCAR-5 ovarian) was over 50 µM. The GI50 (HS 578T breast) was 11.9 µM, the TGI (HS 578T breast) was 39.5 µM and the GI50 (A549 NSCLC) was 15.6 µM. For the same molecule, the TGI (A549 NSCLC) was over 50 µM, the GI50 (SK-MEL-28 melanoma) was 28.6 µM and the TGI (SK-MEL-28 melanoma) was over 50 µM. The GI50 (SW-620 colon) was 19.4 µM, the TGI (SW-620 colon) was over 50 µM and the GI50 (K-562 leukemia) was 14.9 µM. It also gave a TGI (K-562 leukemia) of over 50 µM, a GI50 (SK-MEL-5 melanoma) of 8.53 µM and a TGI (SK-MEL-5 melanoma) of 17.5 µM. For the same molecule, the GI50 (NCI-H522 lung) was over 50 µM, the TGI (NCI-H522 lung) was over 50 µM and the GI50 (HCT-15 colon) was 11.7 µM. It also gave a TGI (HCT-15 colon) of 46.9 µM, a GI50 (UACC-257 melanoma) of 13.3 µM and a TGI (UACC-257 melanoma) of 33.9 µM. It also gave a GI50 (A498 renal) of 22.2 µM, a TGI (A498 renal) of over 50 µM and a GI50 (SNB-19 CNS) of 21 µM. For the same molecule, the TGI (SNB-19 CNS) was over 50 µM, the GI50 (SF-268 CNS) was 21.1 µM and the TGI (SF-268 CNS) was over 50 µM. For the same molecule, the GI50 (CAKI-1 renal) was 20.8 µM, the TGI (CAKI-1 renal) was 46.1 µM and the GI50 (UACC-62 melanoma) was 21.7 µM. The TGI (UACC-62 melanoma) was over 50 µM, the GI50 (SF-539 CNS) was 12.8 µM and the TGI (SF-539 CNS) was 35.2 µM. It also gave a GI50 (MOLT-4 leukemia) of over 50 µM, a TGI (MOLT-4 leukemia) of over 50 µM and a GI50 (LOX IMVI melanoma) of 7.64 µM. It also gave a TGI (LOX IMVI melanoma) of 20.7 µM, a GI50 (MDA-MB-435) of 13.5 µM and a TGI (MDA-MB-435) of 33.8 µM. The GI50 (HT29 colon) was 18.6 µM, the TGI (HT29 colon) was over 50 µM and the GI50 (NCI-H460 lung) was 14.3 µM. It also gave a TGI (NCI-H460 lung) of over 50 µM, a GI50 (MDA-MB-231 breast) of over 50 µM and a TGI (MDA-MB-231 breast) of over 50 µM. It also gave a GI50 (SF-295 CNS) of 17.9 µM, a TGI (SF-295 CNS) of over 50 µM and a GI50 (OVCAR-3 ovarian) of 25.9 µM. The TGI (OVCAR-3 ovarian) was over 50 µM, the GI50 (NCI/ADR-RES ovarian) was 16.5 µM and the TGI (NCI/ADR-RES ovarian) was over 50 µM. The GI50 (IGROV1 ovarian) was 34.7 µM, the TGI (IGROV1 ovarian) was over 50 µM and the GI50 (RPMI-8226 leukemia) was 9.79 µM. The TGI (RPMI-8226 leukemia) was over 50 µM, the GI50 (HOP-62 NSCLC) was 27.2 µM and the TGI (HOP-62 NSCLC) was over 50 µM.
